For the test, the system named is E. coli (ATCC 25922). Put plainly: Lower effective concentration of ethyl lactate, modification of AOAC Method 956.17. Conditions: 15% solution of ethyl lactate, 10 minutes exposure of E. coli. Format: cell-based. How it is done:
Using a modification of AOAC Method 956.17, the lower effective concentration for ethyl lactate was tested against E. coli (ATCC 25922) at three reaction times at varying concentrations of ethyl lactate. […] [table]

Take `CCOC(=O)C(C)O` (stereo not shown) [ethyl lactate]: the “Bacterial growth after exposure” value is listed as “eliminated bacterial growth”.

The values are drawn from patent US20050019355A1, “Skin antiseptic and disinfectant” (priority 2003, published 2005).
